Reference: ChEMBL document CHEMBL5032522, “N-2-(phenylamino) benzamide derivatives as novel anti-glioblastoma agents: Synthesis and biological evaluation” (Eur J Med Chem, 2021)
pIC50: −log10 of the molar value. Calls of active or inactive are those of the source. The calls are words filed in the database; no cut-off is given here.

Legend:
[1] = target: T1, DNA topoisomerase 1 (Homo sapiens) (UniProt P11387); assay: Inhibition of human topoisomerase I using DNA pBR322 as substrate assessed as DNA intercalation at 100 uM incubated for 30 mins by ethidium bromide staining based agarose gel electrophoresis method
T1 sequence (whole entry): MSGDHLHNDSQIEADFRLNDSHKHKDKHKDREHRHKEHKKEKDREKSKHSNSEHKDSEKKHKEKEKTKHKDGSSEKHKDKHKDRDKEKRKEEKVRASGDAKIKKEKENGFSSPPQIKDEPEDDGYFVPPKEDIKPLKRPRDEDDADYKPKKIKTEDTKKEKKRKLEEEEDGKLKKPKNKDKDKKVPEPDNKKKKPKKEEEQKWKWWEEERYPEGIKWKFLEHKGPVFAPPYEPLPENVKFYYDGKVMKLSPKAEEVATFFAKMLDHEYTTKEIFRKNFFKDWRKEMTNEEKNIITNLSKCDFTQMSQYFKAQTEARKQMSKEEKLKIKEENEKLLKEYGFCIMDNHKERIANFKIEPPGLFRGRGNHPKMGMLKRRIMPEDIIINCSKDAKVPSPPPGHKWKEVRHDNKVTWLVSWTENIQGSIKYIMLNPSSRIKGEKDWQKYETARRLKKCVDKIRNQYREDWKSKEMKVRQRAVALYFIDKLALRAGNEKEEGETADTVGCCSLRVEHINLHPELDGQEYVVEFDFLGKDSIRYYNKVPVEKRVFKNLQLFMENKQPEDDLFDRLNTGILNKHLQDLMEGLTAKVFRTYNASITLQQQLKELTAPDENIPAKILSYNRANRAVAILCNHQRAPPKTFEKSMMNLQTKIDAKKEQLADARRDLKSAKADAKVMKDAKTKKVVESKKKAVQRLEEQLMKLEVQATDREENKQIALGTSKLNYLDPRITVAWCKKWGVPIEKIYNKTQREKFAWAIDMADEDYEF

U-87 MG [2] = assay: Induction of cell cycle arrest in human U-87 MG cells assessed as increase in G2 phase accumulation at 10 uM incubated for 72 hrs by propidium iodide/RNase A staining based flow cytometry; format: functional; settings: U-87MG ATCC
U-87 MG [3] = assay: Induction of cell cycle arrest in human U-87 MG cells assessed as accumulation of cells at G2/M phase incubated for 72 hrs by propidium iodide/RNase A staining based flow cytometry analysis; format: functional; settings: U-87MG ATCC
C6 = assay: Antitumor activity against rat C6 cells inoculated orthotopic Sprague-Dawley rat model assessed as reduction in tumor weight at 100 mg/kg, ip bid administered for 14 days by MRI scanner; format: functional, organism-based; settings: time 14.0 day
U-251 [4] = assay: Induction of morphological changes in human U-251 cells assessed as appearance of shrunken cell bodies at 3.3 uM incubated for 72 hrs by Giemsa staining based light microscopic method; format: functional
U-251 [5] = assay: Induction of morphological changes in human U-251 cells assessed as appearance of spindle cell shape at 3.3 uM incubated for 72 hrs by Giemsa staining based light microscopic method; format: functional
U-251 [6] = assay: Antiproliferative activity against human U-251 cells assessed as inhibition of cell growth measured up to 72 hrs by CCK-8 assay; format: functional, cell-based; settings: time hrs <=72
U-87 MG [7] = assay: Induction of cell cycle arrest in human U-87 MG assessed as decrease in G0/G1 phase accumulation at 10 uM incubated for 72 hrs by propidium iodide/RNase A staining based flow cytometry; format: functional; settings: U-87MG ATCC
U-251 [8] = assay: Inhibition of cell invasion in human U-251 cells incubated for 24 hrs by crystal violet staining based light microscopic analysis; format: functional
U-87 MG [9] = assay: Inhibition of cell invasion in human U-87 MG cells incubated for 24 hrs by crystal violet staining based light microscopic analysis; format: functional; settings: U-87MG ATCC
U-251 [10] = assay: Induction of morphological changes in human U-251 cells assessed as appearance of rounded and shortened cells at 3.3 uM incubated for 72 hrs by Giemsa staining based light microscopic method; format: functional, cell-based
[11] = Ratio of drug concentration in brain to plasma in Sprague-Dawley rat at 100 mg/kg, ip measured 6 hrs post administration by LC-MS/MS analysis; format: ADME, organism-based; settings: read-out: BPR
[12] = target: T2, Prostaglandin G/H synthase 2 (Rattus norvegicus) (UniProt P35355); assay: In vivo inhibition of COX2 in ip dosed orthotopic Sprague-Dawley rat model inoculated with C6 cells assessed as reduction in PGE2 production by ELISA; format: functional, organism-based
T2 sequence (whole entry): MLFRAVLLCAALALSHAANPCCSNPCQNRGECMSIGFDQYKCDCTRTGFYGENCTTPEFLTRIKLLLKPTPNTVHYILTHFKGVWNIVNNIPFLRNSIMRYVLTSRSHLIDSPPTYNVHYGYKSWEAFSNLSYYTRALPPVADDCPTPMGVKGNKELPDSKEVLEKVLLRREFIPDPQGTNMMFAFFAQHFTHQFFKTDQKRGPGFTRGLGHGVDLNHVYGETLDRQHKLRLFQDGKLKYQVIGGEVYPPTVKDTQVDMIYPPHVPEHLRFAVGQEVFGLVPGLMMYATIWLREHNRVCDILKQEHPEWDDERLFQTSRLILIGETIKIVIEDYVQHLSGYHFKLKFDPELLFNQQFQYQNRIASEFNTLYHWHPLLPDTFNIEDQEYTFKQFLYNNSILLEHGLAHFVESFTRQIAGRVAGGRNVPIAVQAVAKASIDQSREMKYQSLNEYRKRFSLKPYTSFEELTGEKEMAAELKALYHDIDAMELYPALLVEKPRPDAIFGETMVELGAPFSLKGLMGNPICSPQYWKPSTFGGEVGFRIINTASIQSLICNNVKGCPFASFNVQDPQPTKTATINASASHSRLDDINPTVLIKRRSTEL

[13] = AUC ( 0 to infinity) in Sprague-Dawley rat at 100 mg/kg, ip measured up to 24 hrs by LC-MS analysis; format: ADME, organism-based; design: route intraperitoneal, dose 100 mg/kg, time <=24; settings: in vivo
[14] = target: DNA topoisomerase 2-alpha (Homo sapiens) (UniProt P11388); assay: Inhibition of human topoisomerase 2 alpha using supercoiled DNA pBR322 as substrate assessed as DNA relaxation at 100 uM incubated for 30 mins by ethidium bromide staining based agarose gel electrophoresis
Sequence of DNA topoisomerase 2-alpha (Homo sapiens) (P11388 whole entry): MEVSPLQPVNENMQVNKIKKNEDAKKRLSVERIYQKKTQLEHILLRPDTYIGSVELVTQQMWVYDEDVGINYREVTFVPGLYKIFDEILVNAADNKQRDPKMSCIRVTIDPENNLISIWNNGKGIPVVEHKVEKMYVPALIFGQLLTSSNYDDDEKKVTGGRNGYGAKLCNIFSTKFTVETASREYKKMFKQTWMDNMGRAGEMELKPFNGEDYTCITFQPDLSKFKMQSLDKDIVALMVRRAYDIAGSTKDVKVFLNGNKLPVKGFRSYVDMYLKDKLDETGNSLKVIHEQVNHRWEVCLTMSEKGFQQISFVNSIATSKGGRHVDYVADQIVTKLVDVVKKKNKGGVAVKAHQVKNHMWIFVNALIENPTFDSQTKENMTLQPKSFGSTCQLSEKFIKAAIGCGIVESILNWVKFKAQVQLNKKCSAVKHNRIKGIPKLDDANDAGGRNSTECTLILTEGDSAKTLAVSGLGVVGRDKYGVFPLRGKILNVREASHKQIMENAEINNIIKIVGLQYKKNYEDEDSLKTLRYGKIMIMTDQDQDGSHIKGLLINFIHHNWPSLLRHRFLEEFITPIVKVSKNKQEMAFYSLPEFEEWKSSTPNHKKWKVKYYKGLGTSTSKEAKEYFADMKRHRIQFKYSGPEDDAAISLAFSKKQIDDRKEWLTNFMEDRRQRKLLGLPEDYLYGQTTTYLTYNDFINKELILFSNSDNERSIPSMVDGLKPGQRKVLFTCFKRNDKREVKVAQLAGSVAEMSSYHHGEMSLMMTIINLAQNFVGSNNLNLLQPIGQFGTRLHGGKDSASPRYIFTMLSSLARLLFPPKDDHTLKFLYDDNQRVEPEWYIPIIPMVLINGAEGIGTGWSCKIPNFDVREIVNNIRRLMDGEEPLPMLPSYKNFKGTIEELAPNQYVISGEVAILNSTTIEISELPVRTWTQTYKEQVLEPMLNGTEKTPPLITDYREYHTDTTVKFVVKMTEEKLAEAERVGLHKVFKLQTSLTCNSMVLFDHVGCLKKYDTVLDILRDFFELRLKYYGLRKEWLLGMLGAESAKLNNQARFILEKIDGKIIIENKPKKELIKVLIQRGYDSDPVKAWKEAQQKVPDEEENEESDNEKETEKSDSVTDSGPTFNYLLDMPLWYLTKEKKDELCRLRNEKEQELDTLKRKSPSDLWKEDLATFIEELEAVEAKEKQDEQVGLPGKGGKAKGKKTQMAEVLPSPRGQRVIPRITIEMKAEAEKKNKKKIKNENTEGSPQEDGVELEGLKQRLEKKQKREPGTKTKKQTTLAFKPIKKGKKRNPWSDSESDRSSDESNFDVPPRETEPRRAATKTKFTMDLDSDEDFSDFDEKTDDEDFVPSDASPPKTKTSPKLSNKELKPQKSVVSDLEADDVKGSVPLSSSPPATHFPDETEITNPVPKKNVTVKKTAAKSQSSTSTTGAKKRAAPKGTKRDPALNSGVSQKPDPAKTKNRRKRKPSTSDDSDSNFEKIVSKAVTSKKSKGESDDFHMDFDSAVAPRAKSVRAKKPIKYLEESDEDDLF

U-87 MG [15] = assay: Induction of morphological changes in human U-87 MG cells assessed as appearance of spindle cell shape at 3.3 uM incubated for 72 hrs by Giemsa staining based light microscopic method; format: functional; settings: U-87MG ATCC
[16] = AUC (0 to t) in Sprague-Dawley rat at 100 mg/kg, ip measured up to 24 hrs by LC-MS analysis; format: ADME, organism-based; design: route intraperitoneal, dose 100 mg/kg, time <=24; settings: in vivo
U-251 [17] = assay: Antiproliferative activity against human U-251 cells assessed as cell survival at <= 1.1 uM measured after 24 hrs by CCK-8 assay; format: functional; settings: dose microM <=1.1
[18] = Tmax in Sprague-Dawley rat at 100 mg/kg, ip measured up to 24 hrs by LC-MS analysis; format: ADME, organism-based; settings: in vivo
U-87 MG [19] = assay: Antiproliferative activity against human U-87 MG cells assessed as inhibition of cell growth measured after 72 hrs by CCK-8 assay; format: functional, cell-based, U-87MG ATCC
U-251 [20] = assay: Induction of cell cycle arrest in human U-251 cells assessed as accumulation of cells at G2/M phase incubated for 72 hrs by propidium iodide/RNase A staining based flow cytometry analysis; format: functional
U-87 MG [21] = assay: Antiproliferative activity against human U-87 MG cells assessed as cell survival at <= 1.1 uM measured after 24 hrs by CCK-8 assay; format: functional, U-87MG ATCC; settings: dose microM <=1.1

SMILES | inhibition [1] | Activity (U-87 MG [2]) | Activity (U-87 MG [3]) | Activity (C6) | Activity (U-251 [4]) | Activity (U-251 [5]) | Activity (U-251 [6]) | Activity (U-87 MG [7]) | inhibition (U-251 [8]) | inhibition (U-87 MG [9]) | Activity (U-251 [10]) | Kp at 6 h [11] | inhibition [12] | AUC(0-inf) [13] [ng·h/mL] | inhibition [14] | Activity (U-87 MG [15]) | AUC(0-t) at 24 h [16] [ng·h/mL] | Survival (U-251 [17]) [%] | Tmax [18] [h] | pIC50 (U-87 MG [19]) | other results
Cc1c(Cl)cccc1Nc1ccccc1C(=O)Nc1ccc2c(c1)OCO2 | Active | Active | Dose-Dependent Effect | Active | Active | Active | Dose-Dependent Effect | Active | Dose-Dependent Effect | Dose-Dependent Effect | Active | 0.29 | Active | 49200 | inactive | Active | 46200 | >80 | 3.33 | 5.19 | Activity (U-251 [20]): Dose-Dependent Effect; Survival (U-87 MG [21]): >80%
COc1ccc(NC(=O)c2ccccc2Nc2cccc(Cl)c2C)cc1 | Active | Active | Dose-Dependent Effect | Active | Active | Active | Dose-Dependent Effect | Active | Dose-Dependent Effect | Dose-Dependent Effect | Active | 0.65 | Active | 86200 | inactive | Active | 78400 | >80 | 3.33 | 5.32 | Activity (U-251 [20]): Dose-Dependent Effect; Survival (U-87 MG [21]): >80%
